Measured values: PMC9579956 (RSC Medicinal Chemistry, 2022)

Each compound was assayed against Mycobacterium thermoresistible (Mtr) LpqY (Mycolicibacterium thermoresistibile, UniProt G7CES0). Conditions: single dose MST screen against LpqY.
Format: binding

Chain of Mycobacterium thermoresistible (Mtr) LpqY (G7CES0 29-471): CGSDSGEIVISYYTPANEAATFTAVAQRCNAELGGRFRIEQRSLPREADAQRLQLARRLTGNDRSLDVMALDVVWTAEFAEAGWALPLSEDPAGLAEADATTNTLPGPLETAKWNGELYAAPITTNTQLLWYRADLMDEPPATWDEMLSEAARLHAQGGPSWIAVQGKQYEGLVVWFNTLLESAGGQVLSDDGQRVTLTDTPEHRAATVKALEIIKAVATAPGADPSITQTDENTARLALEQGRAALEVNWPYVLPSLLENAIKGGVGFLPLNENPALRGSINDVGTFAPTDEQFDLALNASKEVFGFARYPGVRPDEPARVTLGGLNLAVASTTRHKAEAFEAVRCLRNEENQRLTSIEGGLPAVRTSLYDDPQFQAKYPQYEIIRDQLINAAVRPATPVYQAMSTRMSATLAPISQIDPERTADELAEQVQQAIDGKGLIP

SMILES	Pathogen Box screen signal/noise ratio
CC(=O)N(CCN(C(=O)c1ccc(F)cc1)c1ccccc1)c1ccccc1 [MMV676064]	0.35
COC(=O)Nc1nc2cc(C(=O)c3ccccc3)ccc2[nH]1 [MMV003152]	1.9
O=C(c1ccc(NCCO)cc1)C1C[C@H]1c1ccc(Cl)cc1 (stereo partly drawn) [MMV676877]	0.0
Cc1ccccc1CN1CCC(O)(c2ccc(Cl)c(C(F)(F)F)c2)CC1 [MMV688846]	0.25
CCN(CC)S(=O)(=O)c1ccc(C(=O)Nc2cc(C)nn2-c2nc(C)c(C)c(=O)[nH]2)cc1 [MMV595321]	0.167
c1cncc(NCc2ccc(-c3cc4ccncc4cc3OC3CCNCC3)s2)c1 [MMV023969]	1.3
Cc1cc(OCC(=O)NCc2ccccc2)c2cc(Br)ccc2n1 [MMV687747]	0.856
O=C1Nc2ccc(Br)cc2C12NCCc1c2[nH]c2ccccc12 (stereo not drawn) [MMV006239]	2.0
C[C@H](c1ccc2c(c1)CCCC2)N(C)c1ncc2c(N)nc(N)nc2n1 [MMV690103]	1.5
Nc1nccc2ccc(-c3ccc4nccn4c3)cc12 [MMV023233]	0.9
CCC(C)NC(=O)c1ccc(NC(=O)C2(c3ccccc3)CCCC2)cc1 (stereo not drawn) [MMV146306]	-0.653
CCOc1ccc(OCC(=O)Nc2cc(C)cc(C)c2)cc1 [MMV676470]	0.2
CC1COC(Cn2cncn2)(c2ccc(Oc3ccc(Cl)cc3)cc2Cl)O1 (stereo not drawn) [MMV688943]	0.75
COc1ccc2nc(C)cc(OCC(=O)Nc3ccccc3OC)c2c1 [MMV687188]	1.7
CNCCC(Oc1ccc(C(F)(F)F)cc1)c1ccccc1 (stereo not drawn) [MMV001561]	0.9
CC(C)(C)OC(=O)N1CCN(c2cc(-c3ccc(Oc4ccccc4)cc3)n[nH]2)CC1 [MMV676057]	1.2
CS(=O)(=O)c1ccc(C(=O)N(CC2CCCO2)c2nc3ccccc3s2)cc1[N+](=O)[O-] (stereo not drawn) [MMV688761]	0.6
CCN(CC)CCCN1CCN(C(=O)c2cccc(-c3noc(C(F)(F)F)n3)c2)CC1 [MMV022236]	0.542
COc1ccc(-c2cnc3ccc(NCc4ccc(S(N)(=O)=O)cc4)nn23)cn1 [MMV010545]	0.463
O=C(NCCN1CCCC1)c1cc(NCCN2CCOCC2)nc2ccc(Cl)cc12 [MMV634140]	0.9
NC(=O)c1cc(Br)ccc1OCCOc1ccccc1 [MMV687243]	0.4

SMILES	Pathogen Box screen signal/noise ratio
COc1cccc(OC)c1C(=O)Nc1ccc(Cl)c(-c2nc3ccccc3s2)c1 [MMV676472]	0.348
O=C(Nc1ccc(N2CCNCC2)nc1)c1oc(-c2ccccc2)nc1C(F)(F)F [MMV024937]	2.9
COc1ccc(N(CCc2cccc(C)n2)C(C)=O)cc1 [MMV675995]	0.318
COc1cccc(-n2nnnc2S(=O)(=O)Cc2ccccc2)c1 [MMV676388]	0.952
CCN(CC)C(=O)N1CCN(C)CC1 [MMV002816]	1.5
c1ccc(Oc2ccc(-c3cc(N4CCOCC4)[nH]n3)cc2)cc1 [MMV045105]	1.1
CC(C)(C)c1cnc(NC(=O)c2ccccc2O)s1 [MMV495543]	0.8
COc1cc(CN2CCC3(C=Cc4ccccc43)CC2)cc2c1OCO2 [MMV688941]	0.5
CC(C)(C)n1nc(Cc2ccc(F)c(Cl)c2)c2c(N)ncnc21 [MMV688852]	0.7
COC(=O)c1cccc2oc(-c3cccc(OC)c3NC(=O)c3cc(-c4ccccc4)on3)nc12 [MMV676186]	0.1
Cc1cc2nc(NC(=O)C(C)(C)C)nc(Cl)c2n1Cc1ccc(Cl)cc1 [MMV688704]	1.2
COc1ccc(Oc2ccc([C@@H](C)N(C)c3ncc4c(N)nc(N)nc4n3)cc2)cc1 [MMV690102]	2.1
NS(=O)(=O)c1cccc(-c2ccc3ncc(N4CCOCC4)nc3c2)c1 [MMV023860]	1.6
O=C(Nc1cccc(-c2ccc(NCCCN3CCCC3)nc2)c1)c1ccccc1 [MMV023953]	2.4
Cc1nc2ccccn2c1C(=O)NCc1ccc(Cl)cc1 [MMV012074]	1.0
CC(=O)OC[C@H]1O[C@@H]([S-])[C@H](OC(C)=O)[C@@H](OC(C)=O)[C@@H]1OC(C)=O.CC[PH+](CC)CC.[Au] [MMV688978]	0.85
O=C(NCCc1ccccc1)c1cc(-c2cccnc2)cnc1NCC1CC1 [MMV026490]	1.4
CC1=NN(c2nc3ccccc3s2)C(=O)C1Cc1cccc2ccccc12 (stereo not drawn) [MMV676558]	3.8
CNc1snc(C)c1C(=O)NCCOc1ccc(OC)cc1 [MMV688554]	0.8
O=C(C1CCN(c2nnc(-n3cccc3)s2)CC1)N1CCC(Cc2ccccc2)CC1 [MMV676478]	0.661
Cc1cc(NC(=O)c2ccc(S(=O)(=O)N(Cc3ccccc3)C(C)C)cc2)no1 [MMV007133]	0.4

SMILES	Pathogen Box screen signal/noise ratio
CN1CCN(S(=O)(=O)c2ccc(-c3ccc4c(Nc5ncc(Cl)cn5)ccnc4c3)cc2)CC1 [MMV688283]	1.8
O=C(Nc1nnc(-c2ccc(Cl)s2)o1)c1ccc(Cl)s1 [MMV676501]	0.556
Brc1cncc(-c2cc(NCCCn3ccnc3)nc(-c3ccccc3)n2)c1 [MMV661713]	0.5
Cc1[nH]c2ccccc2c1C(c1cccs1)N1CCN(C)CC1 (stereo not drawn) [MMV688768]	2.1
CNC1C(OC2C(OC3C(O)C(O)C(NC(=N)N)C(O)C3NC(=N)N)OC(C)C2(O)C=O)OC(CO)C(O)C1O (stereo not drawn) [MMV688994]	0.56
CC(C)(C)CN1C(=O)C(c2ccccc2)(c2ccccc2)N=C1N [MMV026550]	0.455
CCc1ccc(C(NCc2nc(N)nc(N(C)C)n2)C(C)C)cc1 (stereo not drawn) [MMV1019989]	0.5
O=C(c1ccco1)N(CCCn1ccnc1)c1nc2c(Cl)cccc2s1 [MMV688936]	1.4
Cc1nn2c(=O)c3c([nH]c2c1-c1ccc(Cl)cc1)CCCC3 [MMV688776]	1.5
O=C(C(Cc1c[nH]c2ccccc12)NS(=O)(=O)c1ccc(Cl)cc1)N1CCCCC1 (stereo not drawn) [MMV085210]	2.9
COc1ccc(C2(C(=O)Nc3ccc(Br)cc3)CCCC2)cc1 [MMV200748]	1.4
O=C(CN1CCOCC1)Nc1ccc2ncnc(Nc3ccc(OCc4cccc(F)c4)c(Cl)c3)c2c1 [MMV688274]	1.0
O=C(Nc1nc(-c2ccccn2)cs1)c1cncn1-c1ccccc1 [MMV676512]	0.561
Cc1cc(Nc2ccc(C(F)(F)F)cc2)n2ccnc2n1 [MMV011229]	0.2
CCc1cc(=O)n(C)c(SC(C)C(=O)Nc2ccc(F)cc2)n1 (stereo not drawn) [MMV688980]	1.3
NCC(=O)N1CCn2c(nc(-c3ccccc3)c2Nc2ccc3c(c2)OCO3)C1 [MMV011691]	1.3
O=C(Nc1cnc2ccccc2c1)c1cccc(-n2cnnn2)c1 [MMV084864]	1.5
Cc1nc(-c2cccc(NCc3ccccc3)c2)[nH]c1C [MMV023227]	1.4
CNC(=O)c1cc(S(=O)(=O)N2CCN(c3ccccn3)CC2)cs1 [MMV020136]	0.5
Cc1nnc(NC(=O)c2cn(-c3ccccc3)nc2-c2ccccc2C)o1 [MMV020320]	0.6
Clc1ccc(CCNc2cc(-c3ccccc3)nc3ncnn23)cc1 [MMV688889]	3.0

SMILES	Pathogen Box screen signal/noise ratio
O=C1[C@@H](Oc2ccccc2)[C@@H](c2ccc(Cl)cc2)N1CCn1cnc2c(NCc3ccccc3)ncnc21 [MMV688352]	0.212
Clc1cccc(CO[C@H]2CCc3ccccc3[C@@H]2n2ccnn2)c1 [MMV676159]	1.0
FC(F)(F)c1nnc2ccc(Cl)nn12 [MMV069458]	2.4
CC(=O)N1CCN(c2ccc(Oc3ccc(Cl)cc3O)cc2)CC1 [MMV688330]	1.8
NC(=O)c1cc(-c2ccsc2)ccc1OCCOc1ccccc1 [MMV687138]	1.8
Cc1cc(Cl)c(S(=O)(=O)N2CCCC2)cc1OCC(=O)NC1CCCCC1 [MMV006833]	1.6
COc1cccc(-n2nnnc2S(C)(=O)=O)c1 [MMV272144]	0.7
COc1cc(C(F)(F)F)nc2ccc(C)c(N)c12 [MMV047015]	2.0
Cc1noc(C)c1C(=O)N1CCCC(c2[nH]c3c(C)cccc3c2-c2ccncc2)C1 (stereo not drawn) [MMV020623]	2.5
COc1cc(Br)cc2cc(C(=O)Nc3cccc(C(F)(F)F)c3)c(=O)oc12 [MMV688891]	0.646
CCCn1c(NC(=O)c2ccc3ccccc3n2)nc2ccccc21 [MMV1030799]	0.9
Nc1ncc(-c2ccc(C(F)(F)F)nc2)cc1-c1ccc(C(F)(F)F)nc1 [MMV668727]	2.0
COc1ccc(Cn2cnc3c(-c4ccco4)nc(Cl)nc32)cc1 [MMV687170]	1.0
Cc1cc(NCCc2ccccc2)nc(NC(=N)Nc2ccc(Cl)cc2)n1 [MMV021660]	1.6
CS(=O)(=O)N1CCC(CCn2nc(Cc3cccc4ccccc34)c3c(N)ncnc32)CC1 [MMV688470]	0.75
Cc1ccc(S(=O)(=O)n2cc(-c3ccnc(N)c3)c3cc(Br)cnc32)cc1 [MMV024114]	1.1
CN(C)CCNC(=O)N1CCCN(c2ncnc3cc(-c4ccccc4)sc23)CC1 [MMV024195]	0.217
C[C@H](C(N)=O)N1CCCC[C@@H]1c1ccc(OCc2cccc(F)c2)cc1 [MMV676270]	0.9
